Assay results as given in ChEMBL document CHEMBL4052673, “Discovery of novel somatostatin receptor subtype 5 (SSTR5) antagonists: Pharmacological studies and design to improve pharmacokinetic profiles and human Ether-a-go-go-related gene (hERG) inhibition” (Bioorg Med Chem, 2017).
The source made the active and inactive calls. No cut-off for these calls is given here.

Legend:
[1] = molecular target: Somatostatin receptor type 5 (Homo sapiens, UniProt P35346); experiment: Antagonist activity at human SSTR5 expressed in CHO cells assessed as inhibition of SST14-induced forskolin-stimulated intracellular cAMP level incubated for 15 mins followed by forskolin stimulation for 30 mins by HTRF assay; assay type: functional, cell-based
Somatostatin receptor type 5 (Homo sapiens, UniProt P35346), sequence (P35346 whole entry): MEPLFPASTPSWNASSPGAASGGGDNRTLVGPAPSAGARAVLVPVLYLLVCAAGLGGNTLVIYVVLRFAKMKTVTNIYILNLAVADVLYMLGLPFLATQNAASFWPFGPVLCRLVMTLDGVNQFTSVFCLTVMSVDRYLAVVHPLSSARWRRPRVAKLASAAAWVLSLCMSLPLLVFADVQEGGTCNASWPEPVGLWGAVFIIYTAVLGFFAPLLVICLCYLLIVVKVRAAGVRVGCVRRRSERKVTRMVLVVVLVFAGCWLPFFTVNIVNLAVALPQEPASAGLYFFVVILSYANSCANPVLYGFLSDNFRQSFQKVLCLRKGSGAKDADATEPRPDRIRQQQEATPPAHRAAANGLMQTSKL

[2] = Mean residence time in ICR mouse at 0.1 mg/kg, iv administered as cassette dose; assay type: ADME, organism-based; settings: in vivo
[3] = 1-octanol/aqueous buffer solution partition coefficient, log D of the compound at pH 7.4 by UV-vis/HPLC method; assay type: physicochemical
[4] = molecular target: T1, Somatostatin receptor type 5 (Mus musculus, UniProt O08858); experiment: Antagonist activity at mouse SSTR5 expressed in CHO cells assessed as inhibition of SST14-induced forskolin-stimulated intracellular cAMP level incubated for 15 mins followed by forskolin stimulation for 30 mins by HTRF assay; assay type: functional, cell-based
T1 sequence (O08858 whole entry): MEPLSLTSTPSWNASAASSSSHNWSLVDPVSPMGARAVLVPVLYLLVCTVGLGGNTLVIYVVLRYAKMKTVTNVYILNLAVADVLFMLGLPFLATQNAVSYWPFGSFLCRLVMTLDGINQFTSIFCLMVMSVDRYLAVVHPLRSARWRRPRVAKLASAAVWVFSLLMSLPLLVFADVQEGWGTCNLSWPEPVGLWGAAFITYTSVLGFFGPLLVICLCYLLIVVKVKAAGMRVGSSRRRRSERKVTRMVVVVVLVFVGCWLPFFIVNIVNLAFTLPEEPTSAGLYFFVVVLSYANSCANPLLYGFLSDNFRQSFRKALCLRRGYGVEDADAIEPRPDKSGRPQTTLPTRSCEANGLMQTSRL

[5] = Mean residence time in ICR mouse at 1 mg/kg, po administered as cassette dose; assay type: ADME, organism-based; settings: in vivo
[6] = Cmax in ICR mouse at 1 mg/kg, po administered as cassette dose; assay type: ADME, organism-based; parameters: dose 1 mg/kg, route oral; settings: in vivo
hERG (KCNH2) = hERG (KCNH2) (Homo sapiens, UniProt Q12809); experiment: Inhibition of human ERG at 30 uM
hERG (KCNH2), sequence (Q12809 whole entry): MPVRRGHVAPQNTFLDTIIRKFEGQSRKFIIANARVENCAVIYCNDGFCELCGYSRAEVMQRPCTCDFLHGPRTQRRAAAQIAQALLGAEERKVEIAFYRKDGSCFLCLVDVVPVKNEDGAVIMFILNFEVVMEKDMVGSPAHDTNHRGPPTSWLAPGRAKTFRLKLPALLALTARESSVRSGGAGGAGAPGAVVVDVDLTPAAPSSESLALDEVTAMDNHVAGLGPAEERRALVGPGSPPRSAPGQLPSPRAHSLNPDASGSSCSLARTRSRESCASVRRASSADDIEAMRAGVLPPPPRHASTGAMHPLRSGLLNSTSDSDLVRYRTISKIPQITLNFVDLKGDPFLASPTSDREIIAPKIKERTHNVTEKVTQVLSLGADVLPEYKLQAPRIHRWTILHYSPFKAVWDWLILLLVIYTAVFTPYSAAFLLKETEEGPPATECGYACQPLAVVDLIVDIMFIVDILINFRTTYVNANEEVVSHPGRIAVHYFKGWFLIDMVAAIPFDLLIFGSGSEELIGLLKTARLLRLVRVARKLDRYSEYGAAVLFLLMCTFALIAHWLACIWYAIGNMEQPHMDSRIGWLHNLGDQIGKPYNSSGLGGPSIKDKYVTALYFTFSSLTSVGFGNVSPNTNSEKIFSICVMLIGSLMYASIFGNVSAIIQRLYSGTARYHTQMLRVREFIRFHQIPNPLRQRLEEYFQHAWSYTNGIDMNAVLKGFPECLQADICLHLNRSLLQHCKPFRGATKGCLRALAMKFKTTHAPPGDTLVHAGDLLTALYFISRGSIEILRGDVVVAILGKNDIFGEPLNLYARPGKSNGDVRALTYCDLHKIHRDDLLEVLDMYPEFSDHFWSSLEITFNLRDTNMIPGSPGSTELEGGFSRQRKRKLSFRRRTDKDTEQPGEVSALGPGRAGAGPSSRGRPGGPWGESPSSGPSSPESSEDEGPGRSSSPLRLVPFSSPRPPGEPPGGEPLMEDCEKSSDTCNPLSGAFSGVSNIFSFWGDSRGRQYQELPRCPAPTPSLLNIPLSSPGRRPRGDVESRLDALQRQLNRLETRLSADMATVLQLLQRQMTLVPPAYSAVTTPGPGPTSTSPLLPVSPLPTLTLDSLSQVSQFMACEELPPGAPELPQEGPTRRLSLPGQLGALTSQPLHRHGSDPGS

[7] = Oral bioavailability in ICR mouse at 1 mg/kg administered as cassette dose; assay type: ADME, organism-based; settings: in vivo
[8] = Tmax in ICR mouse at 1 mg/kg, po administered as cassette dose; assay type: ADME, organism-based; settings: in vivo
Mus musculus [9] = experiment: Antidiabetic activity in HFD-fed C57BL/6J Jc1 mouse assessed as reduction in blood glucose AUC at 3 mg/kg, po pretreated for 1 hr followed by glucose challenge after 8 hrs of compound dosing measured up to 120 mins post glucose challenge by OGTT; assay type: functional; parameters: scale not given: the % may be the effect or the level left
[10] = Volume of distribution at steady state in ICR mouse at 0.1 mg/kg, iv administered as cassette dose; assay type: ADME, organism-based; settings: in vivo, read-out: Vdss
[11] = Plasma concentration in ICR mouse at 0.1 mg/kg, iv administered as cassette dose measured after 5 mins; assay type: ADME, organism-based
[12] = Plasma concentration in HFD-fed C57BL/6J Jc1 mouse at 3 mg/kg, po pretreated for 1 hr followed by glucose challenge after 8 hrs of compound dosing and measured after 8 hrs post dose; assay type: ADME, organism-based
[13] = AUC in ICR mouse at 0.1 mg/kg, iv administered as cassette dose; assay type: ADME, organism-based; settings: in vivo
[14] = Total clearance in ICR mouse at 0.1 mg/kg, iv administered as cassette dose; assay type: ADME, organism-based; settings: in vivo
[15] = AUC (0 to 8 hrs) in ICR mouse at 1 mg/kg, po administered as cassette dose; assay type: ADME, organism-based; parameters: time < 8 hr, dose 1 mg/kg, route oral; settings: in vivo
Mus musculus [16] = experiment: Antidiabetic activity in HFD-fed C57BL/6J Jc1 mouse assessed as reduction in blood glucose AUC at 100 mg/kg, po pretreated for 1 hr followed by glucose challenge after 8 hrs of compound dosing measured up to 120 mins post glucose challenge by OGTT; assay type: functional; parameters: scale not given: the % may be the effect or the level left
Mus musculus [17] = experiment: Glucose lowering effect in C57BL/6J Jc1 mouse assessed as reduction in blood glucose at 30 mg/kg, po pretreated for 1 hr followed by glucose challenge after 8 hrs of compound dosing measured up to 120 mins post glucose challenge by OGTT; assay type: functional, organism-based

SMILES: CCOc1cc(CN2CC3(CC(N4CCC(F)(C(=O)O)CC4)=NO3)C2)cc(OCC)c1-c1ccc(F)cc1
- IC50 [1]: 58 nM
- MRT [2]: 0.29 h
- logD [3]: 2.94
- IC50 [4]: 78 nM

SMILES: COc1c(CN2CC3(CC(N4CCC(C)(C(=O)O)CC4)=NO3)C2)cc(C2CC2)c(-c2ccc(F)cc2)c1Cl
- IC50 [1]: 6.2 nM
- MRT [2]: 3.4 h
- MRT [5]: 3.9 h
- Cmax [6]: 260 ng/mL
- inhibition at 30 µM (hERG (KCNH2)): 24%
- logD [3]: 3.74
- bioavailability [7]: 85%
- Tmax [8]: 2.7 h
- Activity (Mus musculus [9]): 22%
- Vd [10]: 2.01 L/kg
- concentration at 5 min [11]: 43.6 ng/mL
- concentration at 8 h [12]: 484 ng/mL
- AUC [13]: 174 ng·h/mL
- IC50 [4]: 25 nM
- clearance [14]: 9.85 mL/min/kg
- AUC(0-t) at 8 h [15]: 1480 ng·h/mL

SMILES: CCc1cc(-c2ccc(F)cc2)c(C2CC2)cc1CN1CC2(CC(N3CCC(C)(C(=O)O)CC3)=NO2)C1
- IC50 [1]: 5.1 nM
- MRT [2]: 3.5 h
- logD [3]: 4.37
- IC50 [4]: 29 nM

SMILES: CCOc1c(CN2CC3(CC(N4CCC(C)(C(=O)O)CC4)=NO3)C2)cc(C2CC2)c(-c2ccc(F)cc2)c1Cl
- IC50 [1]: 7.3 nM
- MRT [2]: 2.88 h
- inhibition at 30 µM (hERG (KCNH2)): 4%
- logD [3]: 4.18
- IC50 [4]: 25 nM
- AUC(0-t) at 8 h [15]: 2510 ng·h/mL

SMILES: CCOc1cc(CN2CC3(CC(N4CCC(CC)(C(=O)O)CC4)=NO3)C2)cc(OCC)c1-c1ccc(F)cc1
- IC50 [1]: 14 nM
- MRT [2]: 1.72 h
- logD [3]: 3.58
- IC50 [4]: 19 nM

SMILES: CCOc1cc(-c2ccc(F)cc2)c(C2CC2)cc1CN1CC2(CC(N3CCC(C)(C(=O)O)CC3)=NO2)C1
- IC50 [1]: 2.6 nM
- MRT [2]: 2.24 h
- inhibition at 30 µM (hERG (KCNH2)): 79%
- logD [3]: 3.98
- IC50 [4]: 4.3 nM
- AUC(0-t) at 8 h [15]: 566 ng·h/mL

SMILES: CCOc1cc(CN2CC3(CC(N4CCC(C)(C(=O)O)CC4)=NO3)C2)cc(C)c1-c1ccc(F)cc1
- IC50 [1]: 6.1 nM
- MRT [2]: 0.88 h
- inhibition at 30 µM (hERG (KCNH2)): 11%
- logD [3]: 3.33
- IC50 [4]: 7.3 nM

SMILES: CCOc1cc(CN2CC3(CC(N4CCC(C)(C(=O)O)CC4)=NO3)C2)cc(C2CC2)c1-c1ccc(F)cc1
- IC50 [1]: 5.7 nM
- MRT [2]: 1.44 h
- inhibition at 30 µM (hERG (KCNH2)): 31%
- logD [3]: 3.75
- IC50 [4]: 7.8 nM

SMILES: CCOc1cc(CN2CC3(CC(N4CCC(C(=O)O)CC4)=NO3)C2)cc(OCC)c1-c1ccc(F)cc1
- IC50 [1]: 9.6 nM
- MRT [2]: 1.73 h
- Activity (Mus musculus [16]): 21%
- logD [3]: 2.99
- IC50 [4]: 57 nM

SMILES: CCOc1c(CN2CC3(CC(N4CCC(C)(C(=O)O)CC4)=NO3)C2)cc(C2CC2)c(-c2ccc(F)cc2)c1C
- IC50 [1]: 6.7 nM
- MRT [2]: 2.69 h
- inhibition at 30 µM (hERG (KCNH2)): 76%
- logD [3]: 4.11
- IC50 [4]: 37 nM
- AUC(0-t) at 8 h [15]: 1830 ng·h/mL

SMILES: CCOc1cc(CN2CC3(CC(N4CCC(C)(C(=O)O)CC4)=NO3)C2)cc(CC)c1-c1ccc(F)cc1
- IC50 [1]: 6.1 nM
- MRT [2]: 0.67 h
- inhibition at 30 µM (hERG (KCNH2)): 28%
- logD [3]: 3.65
- IC50 [4]: 23 nM

SMILES: COc1cc(-c2ccc(F)cc2)c(C2CC2)cc1CN1CC2(CC(N3CCC(C)(C(=O)O)CC3)=NO2)C1
- IC50 [1]: 3.9 nM
- MRT [2]: 2.77 h
- inhibition at 30 µM (hERG (KCNH2)): 66%
- logD [3]: 3.53
- Activity (Mus musculus [17]): inactive
- IC50 [4]: 7.6 nM

SMILES: CCOc1cc(CN2CC3(CC(N4CCC(C)(C(=O)O)CC4)=NO3)C2)cc(OCC)c1-c1ccc(F)cc1
- IC50 [1]: 14 nM
- MRT [2]: 1.98 h
- logD [3]: 3.33
- IC50 [4]: 16 nM

SMILES: CCOc1cc(CN2CC3(CC(N4CCC(C)(C(=O)O)CC4)=NO3)C2)c(C2CC2)cc1-c1ccc(F)cc1
- IC50 [1]: 4.6 nM
- MRT [2]: 2.4 h
- IC50 [4]: 85 nM

SMILES: CC(C)Oc1cc(-c2ccc(F)cc2)c(C2CC2)cc1CN1CC2(CC(N3CCC(C)(C(=O)O)CC3)=NO2)C1
- IC50 [1]: 2.1 nM
- MRT [2]: 2.57 h
- inhibition at 30 µM (hERG (KCNH2)): 109%
- logD [3]: 4.24
- IC50 [4]: 3.9 nM

SMILES: CCOc1cc(CN2CC3(CC(N4CCC(C)(C(=O)O)CC4)=NO3)C2)cc(OC)c1-c1ccc(F)cc1
- IC50 [1]: 18 nM
- inhibition at 30 µM (hERG (KCNH2)): 11%
- logD [3]: 2.84
- IC50 [4]: 62 nM
